Where two headings read alike, the source gives them in different places.
How the values were obtained:
L1210 leukemia = experiment: Survival time of mice bearing the L1210 leukemia; assay type: in vivo, mouse (CDF-1 mice); settings: for Av. Change wt. %: L1210 mice; for response vs control in vivo at 50 mg/kg / response vs control in vivo at 100 mg/kg / response vs control in vivo at 150 mg/kg: Mus musculus, read-out: % T/C; for Antineoplastic Activity (max. % T/C from Table III): Table II, L1210 leukemia; for activity against the L1210 leukemia (in words): mouse, in vivo; for maximum % T/C, L1210 leukemia: comparison compounds
Text: The ascites cell forms of the L1210 leukemia, Sarcoma 180 and P388 leukemia were propagated in CDF-1 mice. […] Mice were weighed during the course of the experiments, and the percentage change in body weight from the onset to termination of therapy was used as an indication of host toxicity.
Each value represents the average of 5 animals per group.

Sarcoma 180 = experiment: Survival time of mice bearing Sarcoma 180; assay type: in vivo, mouse (CDF-1 mice)
Protocol: The tumor-inhibitory properties of compounds 1-12 were determined by measuring their effects on the survival time of mice bearing the L1210 leukemia and in some cases Sarcoma 180, and the P388 leukemia. The ascites cell forms of the L1210 leukemia, Sarcoma 180 and P388 leukemia were propagated in CDF-1 mice. Transplantation was carried out using donor mice bearing 7-day tumor growths; experimental details are described in Agrawal et al., J. Med. Chem., 11, 700, 1968, incorporated herein by reference. Mice were weighed during the course of the experiments, and the percentage change in body weight from the onset to termination of therapy was used as an indication of host toxicity.

B16 melanoma = experiment: Survival time of mice bearing the B16 melanoma; assay type: in vivo, mouse (C57B1 mice); settings: for Max. % T/C: Table IV, B16, at optimum effective daily dose; for Av. Change in wt., %: at optimum effective daily dose, B16 mice
Protocol: This tumor was propagated in C57B1mice. Transplantation was carried out by removing tumors from donor mice bearing 14-day subcutaneous tumor growths. The tissue was fragmented to make a well-dispersed cellular suspension and diluted with Fischer's medium without serum so that one gram of tissue was suspended in 5 ml of solution. A portion (0.2 ml) of the resulting cell suspension was injected intraperitoneally into each recipient animal. All compounds were administered over a wide range of dosage levels by intraperitoneal injection, beginning 24 hours after tumor implantation, once daily for 6 consecutive days. The test compounds were injected as fine suspensions following homogenization in 2 to 3 drops of 20% aqueous Tween 80 and then made up to volume with isotonic saline. […] Mice were weighed during the course of the experiments, and the percent change in body weight from onset to termination of therapy was used as an indication of drug toxicity. Determination of the sensitivity of neoplasms to these agents was based on the prolongation of survival time afforded by the drug treatments.
^a Administered once daily for six consecutive days, beginnign 24
hours after tumor transplanation, with 5 animals being used per group.
^b Average change in body weight from onset to termination of therapy
^c % T/C = average survival time of treated/control animals ×
100. Each value represents the average of 5 animals per group.

[1] = Alkylation of 4-(4-nitrobenzyl)pyridine, absorbance at 540 nm (modified Wheeler and Chumley); settings: for Relative Alkylating Activity: (O.D. test sample/O.D. compound 8) × 100, pH 7.4, 37°C, 540 nm; for absorbance at 540 nm (alkylating activity): comparison compounds
Protocol: Since compounds 1-13 were conceived as prodrugs of the alkylating species (II), representative compounds of this class, viz. 1-6, 8 and 10 were tested for alkylating ability using a modification of the method of Wheeler and Chumley. This method measured the absorbance at 540 nm of the alkylated product of 4-(4-nitrobenzyl)pyridine.
^a A solution of the test sample (12 micromoles) in 1 ml of acetone,
ml of distilled water and 1 ml of TrisHCl buffer (pH 7.4) was incubated
with 4(4-nitrobenzyl) pyridine (148 micromoles in 0.4 ml of acetone) for
hr at 37°C. Following additon of 2 ml of acetone and 1.5 ml of 0.2
M NaOH, the material was extracted with 5 ml of ethyl acetate. The
absorbance was determined at 540 nm 30 seconds after the addition of the
sodium hydroxide solution. The greater the absorbance value, the greater
the degree of alkylation
^b Relative Alkylating activity = (O.D. for test sample/O.D. for […]

B16 melanoma cells = experiment: Cytotoxicity: colony-forming ability of B16 melanoma cells; assay type: cell-based; settings: Mus musculus, 1 hour exposure, 12 days incubation, average of two determinations, read-out: LD50 (the source's name)
Protocol: The cytotoxicity of compounds 8 and 12 was determined by measuring their effects on the colony-forming ability of B16 melanoma cells. The cells were maintained in Eagle's minimum essential medium supplemented with 10% fetal bovine serum. To obtain exponentially growing B16 melanoma cells, a 25 cm^2 flask was inoculated with 10^5 cells for two days before addition of drug. The cell monolayer was exposed to various concentrations of compound for 1 hour. After exposure, the layer was washed twice with PBS to remove the compound. The cells were harvested with 2 mM EDTA in PBS, and 200 cells were plated on a 60 mm dish with 5 mL of medium. After incubation for 12 days, the colonies were stained with crystal violet and counted. […] The LD50 was determined from the individual dose-response curves.

[2] = 50 mg/kg once daily for six days
[3] = 100 mg/kg once daily for six days
[4] = 150 mg/kg once daily for six days
[5] = 144 h, 50 mg/kg once daily for six days, L1210
[6] = 144 h, 100 mg/kg once daily for six days, L1210
[7] = 144 h, 150 mg/kg once daily for six days, L1210

Row | Structure (SMILES) | Average Survival Time of Treated Animals, days ± SE (L1210 leukemia; [2]) [days] | Av. Change wt. % (L1210 leukemia; [2]) | Average Survival Time of Treated Animals, days ± SE (L1210 leukemia; [3]) [days] | Av. Change wt. % (L1210 leukemia; [3]) | Average Survival Time of Treated Animals, days ± SE (L1210 leukemia; [4]) [days] | Av. Change wt. % (L1210 leukemia; [4]) | response vs control in vivo at 50 mg/kg (L1210 leukemia; [5]) [%] | response vs control in vivo at 100 mg/kg (L1210 leukemia; [6]) [%] | response vs control in vivo at 150 mg/kg (L1210 leukemia; [7]) [%] | Max. % T/C (B16 melanoma) [% T/C] | Av. Change in wt., % (B16 melanoma) | alkylating activity / absorbance (in words) [1] | Relative Alkylating Activity [1] | Antineoplastic Activity (max. % T/C from Table III) (L1210 leukemia) [% T/C] | activity against the L1210 leukemia (in words) (L1210 leukemia) | other results
1 | CN(NS(=O)(=O)c1ccccc1)S(=O)(=O)c1ccccc1 [Compound 7, N,N'-bis(benzenesulfonyl)-N-methylhydrazine] | 13.2 ± 0.7 | -4.8% | 11.6 ± 0.2 | -5.2% | 9.4 ± 0.4 | -13.5% | 147 | 129 | 104 | 175 | -2.3% |  |  |  |  | Max. % T/C vs. Sarcoma 180 (Sarcoma 180; at 100 mg/kg): 203 % T/C
2 | CN(NS(=O)(=O)c1ccc(Cl)cc1)S(=O)(=O)c1ccc(Cl)cc1 [Compound 10, N,N'-bis (p-chlorobenzenesulfonyl)-N-methylhydrazine] | 9.2 ± 0.2 | +4.1% | 11.4 ± 0.8 | +4.0% | 11.8 ± 1.1 | +1.3% | 97 | 120 |  | 163 | +4.8% | highest | 185 | 124 | virtually inactive | rate of decomposition to a reactive species (in words) [1]: rapid decomposition to a reactive species; response vs control in vivo at 150 mg/kg (L1210 leukemia; L1210, 144 h): 124%
3 | Cc1ccc(S(=O)(=O)NN(C)S(=O)(=O)c2ccc(C)cc2)cc1 [Compound 8, N,N'-bis (4-toluenesulfonyl)-N-methylhydrazine] | 14.0 ± 1.3 | +3.7% | 13.6 ± 2.4 | +0.8% |  |  | 147 | 143 |  | 165 | -2.7% |  | 100 | 147 |  | Max. % T/C vs. Sarcoma 180 (Sarcoma 180; at 50 mg/kg): 197 % T/C; dosage range of activity against the B16 melanoma (B16 melanoma; B16 melanoma in mice): 50 to 150 mg/kg
4 | O=S(=O)(NNS(=O)(=O)c1ccccc1)c1ccccc1 [N,N'-bis(benzenesulfonyl )hydrazine, reference compound] |  |  |  |  |  |  |  |  |  |  |  | negligible alkylating activity |  |  | inactive against the L1210 leukemia | absorbance at 540 nm (alkylating activity) [1]: 0; maximum % T/C, L1210 leukemia (L1210 leukemia): 101 % T/C; activity against the L1210 leukemia (in words) (L1210 leukemia; listed as N,N'-bis(benzenesulfonyl)hydrazine): inactivity
5 | COc1ccc(S(=O)(=O)N(C)NS(=O)(=O)c2ccc(C)cc2)cc1 [Compound 4] | 10.2 ± 0.5 | +12.6% | 10.2 ± 0.2 | +14.8% | 10.4 ± 0.2 | +9.8% | 111 | 111 | 113 | 151 | -14.0% | lowest | 82 | 113 | virtually inactive | 
6 | CCS(=O)(=O)NN(C)S(=O)(=O)c1ccc(C)cc1 [Compound 13] |  |  |  |  |  |  |  |  |  | 174 | -1.1% |  |  |  |  | activity against the B16 melanoma (in words) (B16 melanoma; mouse, in vivo): appreciable levels of activity against the B16 melanoma; IC50 (B16 melanoma cells): 0.16 µM
7 | Cc1ccc(S(=O)(=O)NN(C)S(=O)(=O)c2ccc(Cl)cc2)cc1 [Compound 5, N-(p-chlorobenzenesulfonyl)-N-methyl-N'-(p-toluenesulfonyl)hydrazine] | 10.4 ± 0.4 | +5.1% | 13.0 ± 2.2 | +5.5% | 10.0 ± 0.3 | -4.6% | 113 | 141 | 109 | 162 | -0.4% |  | 169 | 141 | active against the L1210 leukemia | rate of decomposition to a reactive species (in words) [1]: decomposed less rapidly than compound 10
8 | CN(NC(=O)c1ccccc1)C(=O)c1ccccc1 [N,N'-dibenzoyl-N-methylhydrazine, reference compound] |  |  |  |  |  |  |  |  |  |  |  | negligible alkylating activity |  |  | inactive against the L1210 leukemia | absorbance at 540 nm (alkylating activity) [1]: 10; maximum % T/C, L1210 leukemia (L1210 leukemia): 97 % T/C
9 | COc1ccc(S(=O)(=O)NN(C)S(=O)(=O)c2ccc(C)cc2)cc1 [Compound 2, N'-(p-methoxybenzenesulfonyl)-N-methyl-N-(p-toluenesulfonyl)hydrazine] | 10.8 ± 0.6 | +7.7% | 15.0 ± 2.3 | +7.8% | 13.2 ± 2.2 | +2.9% | 117 | 163 | 143 | 200 | +9.1% |  | 95 | 163 |  | 
10 | Cc1ccc(S(=O)(=O)N(C)NS(=O)(=O)c2ccc(Cl)cc2)cc1 [Compound 3, N'-(p-chlorobenzenesulfonyl)-N-methyl-N-(p-toluenesulfonyl)hydrazine] | 17.4 ± 1.4 | +3.7% | 10.8 ± 0.6 | +10.0% | 11.2 ± 1.3 | +6.0% |  | 117 | 122 | 171 | +2.9% |  | 135 | 189 | active against the L1210 leukemia | rate of decomposition to a reactive species (in words) [1]: decomposed less rapidly than compound 10; response vs control in vivo at 50 mg/kg (L1210 leukemia; L1210, 144 h): 189%
11 | Cc1ccc(S(=O)(=O)N(C)NS(=O)(=O)c2ccccc2)cc1 [Compound 1, N'-benzenesulfonyl-N-methyl-N-(p-toluenesulfonyl)hydrazine] | 15.0 ± 1.4 | +2.0% | 10.6 ± 0.2 | +5.4% | 10.8 ± 0.5 | -2.7% | 163 | 115 | 117 | 168 | +8.5% |  | 118 | 163 |  | 
